The text below walks through data of patent US9586951B2 (FUJIFILM Corporation, priority 2013, dated 2017).

Bounds are passed on as bounds.

Assay [1] has as its target T1, ATM (Homo sapiens, UniProt Q13315).
T1 construct: detecting phosphorylation of Chk2 in a human non-small cell lung cancer cell line NCI-H460 (ATCC company); host or cells: NCI-H460 human non-small cell lung cancer cells
Description: ATM inhibition test (phosphorylation of Chk2 generated by ionizing radiation, AlphaScreen SureFire). The conditions noted are these: phosphorylated Chk2 in NCI-H460 cells, ionizing radiation 8Gy, 1 hour after test compound treatment; read-out: ATM inhibitory activity. In kind it is cell-based. The gist of the method:
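Human NCI-H460 lung cancer cells were treated with compound for 1 h, then irradiated at 8Gy and incubated 1 h at 37° C. Phospho-Chk2 was quantified by AlphaScreen SureFire; inhibition % was normalised between irradiated untreated and non-irradiated untreated wells.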
A general note: Alpha assays give light when donor and acceptor beads are brought close together.

Assay [2] relates to human non-small cell lung cancer cell line NCI-H460. As to the kind of experiment: Cell proliferation inhibition test by sensitivity-enhancing to ionizing radiation (Cell Titer Glo). The class given is cell-based. The note with it: concentration in which SER became 2, NCI-H460 cells, ionizing radiation 2 Gy, cultured 120 hour. The gist of the method:
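Radiosensitisation measured as SER, a ratio of Cell Titer Glo luminescence in irradiated vs unirradiated plates relative to DMSO; SER2, the concentration yielding SER 2, came from sigmoidal regression. Compound (0.1% DMSO) was given 24 h post-seeding, 2 Gy applied 30 min later, then 120 hour culture at 37° C.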

T1 sequence (Q13315 whole entry): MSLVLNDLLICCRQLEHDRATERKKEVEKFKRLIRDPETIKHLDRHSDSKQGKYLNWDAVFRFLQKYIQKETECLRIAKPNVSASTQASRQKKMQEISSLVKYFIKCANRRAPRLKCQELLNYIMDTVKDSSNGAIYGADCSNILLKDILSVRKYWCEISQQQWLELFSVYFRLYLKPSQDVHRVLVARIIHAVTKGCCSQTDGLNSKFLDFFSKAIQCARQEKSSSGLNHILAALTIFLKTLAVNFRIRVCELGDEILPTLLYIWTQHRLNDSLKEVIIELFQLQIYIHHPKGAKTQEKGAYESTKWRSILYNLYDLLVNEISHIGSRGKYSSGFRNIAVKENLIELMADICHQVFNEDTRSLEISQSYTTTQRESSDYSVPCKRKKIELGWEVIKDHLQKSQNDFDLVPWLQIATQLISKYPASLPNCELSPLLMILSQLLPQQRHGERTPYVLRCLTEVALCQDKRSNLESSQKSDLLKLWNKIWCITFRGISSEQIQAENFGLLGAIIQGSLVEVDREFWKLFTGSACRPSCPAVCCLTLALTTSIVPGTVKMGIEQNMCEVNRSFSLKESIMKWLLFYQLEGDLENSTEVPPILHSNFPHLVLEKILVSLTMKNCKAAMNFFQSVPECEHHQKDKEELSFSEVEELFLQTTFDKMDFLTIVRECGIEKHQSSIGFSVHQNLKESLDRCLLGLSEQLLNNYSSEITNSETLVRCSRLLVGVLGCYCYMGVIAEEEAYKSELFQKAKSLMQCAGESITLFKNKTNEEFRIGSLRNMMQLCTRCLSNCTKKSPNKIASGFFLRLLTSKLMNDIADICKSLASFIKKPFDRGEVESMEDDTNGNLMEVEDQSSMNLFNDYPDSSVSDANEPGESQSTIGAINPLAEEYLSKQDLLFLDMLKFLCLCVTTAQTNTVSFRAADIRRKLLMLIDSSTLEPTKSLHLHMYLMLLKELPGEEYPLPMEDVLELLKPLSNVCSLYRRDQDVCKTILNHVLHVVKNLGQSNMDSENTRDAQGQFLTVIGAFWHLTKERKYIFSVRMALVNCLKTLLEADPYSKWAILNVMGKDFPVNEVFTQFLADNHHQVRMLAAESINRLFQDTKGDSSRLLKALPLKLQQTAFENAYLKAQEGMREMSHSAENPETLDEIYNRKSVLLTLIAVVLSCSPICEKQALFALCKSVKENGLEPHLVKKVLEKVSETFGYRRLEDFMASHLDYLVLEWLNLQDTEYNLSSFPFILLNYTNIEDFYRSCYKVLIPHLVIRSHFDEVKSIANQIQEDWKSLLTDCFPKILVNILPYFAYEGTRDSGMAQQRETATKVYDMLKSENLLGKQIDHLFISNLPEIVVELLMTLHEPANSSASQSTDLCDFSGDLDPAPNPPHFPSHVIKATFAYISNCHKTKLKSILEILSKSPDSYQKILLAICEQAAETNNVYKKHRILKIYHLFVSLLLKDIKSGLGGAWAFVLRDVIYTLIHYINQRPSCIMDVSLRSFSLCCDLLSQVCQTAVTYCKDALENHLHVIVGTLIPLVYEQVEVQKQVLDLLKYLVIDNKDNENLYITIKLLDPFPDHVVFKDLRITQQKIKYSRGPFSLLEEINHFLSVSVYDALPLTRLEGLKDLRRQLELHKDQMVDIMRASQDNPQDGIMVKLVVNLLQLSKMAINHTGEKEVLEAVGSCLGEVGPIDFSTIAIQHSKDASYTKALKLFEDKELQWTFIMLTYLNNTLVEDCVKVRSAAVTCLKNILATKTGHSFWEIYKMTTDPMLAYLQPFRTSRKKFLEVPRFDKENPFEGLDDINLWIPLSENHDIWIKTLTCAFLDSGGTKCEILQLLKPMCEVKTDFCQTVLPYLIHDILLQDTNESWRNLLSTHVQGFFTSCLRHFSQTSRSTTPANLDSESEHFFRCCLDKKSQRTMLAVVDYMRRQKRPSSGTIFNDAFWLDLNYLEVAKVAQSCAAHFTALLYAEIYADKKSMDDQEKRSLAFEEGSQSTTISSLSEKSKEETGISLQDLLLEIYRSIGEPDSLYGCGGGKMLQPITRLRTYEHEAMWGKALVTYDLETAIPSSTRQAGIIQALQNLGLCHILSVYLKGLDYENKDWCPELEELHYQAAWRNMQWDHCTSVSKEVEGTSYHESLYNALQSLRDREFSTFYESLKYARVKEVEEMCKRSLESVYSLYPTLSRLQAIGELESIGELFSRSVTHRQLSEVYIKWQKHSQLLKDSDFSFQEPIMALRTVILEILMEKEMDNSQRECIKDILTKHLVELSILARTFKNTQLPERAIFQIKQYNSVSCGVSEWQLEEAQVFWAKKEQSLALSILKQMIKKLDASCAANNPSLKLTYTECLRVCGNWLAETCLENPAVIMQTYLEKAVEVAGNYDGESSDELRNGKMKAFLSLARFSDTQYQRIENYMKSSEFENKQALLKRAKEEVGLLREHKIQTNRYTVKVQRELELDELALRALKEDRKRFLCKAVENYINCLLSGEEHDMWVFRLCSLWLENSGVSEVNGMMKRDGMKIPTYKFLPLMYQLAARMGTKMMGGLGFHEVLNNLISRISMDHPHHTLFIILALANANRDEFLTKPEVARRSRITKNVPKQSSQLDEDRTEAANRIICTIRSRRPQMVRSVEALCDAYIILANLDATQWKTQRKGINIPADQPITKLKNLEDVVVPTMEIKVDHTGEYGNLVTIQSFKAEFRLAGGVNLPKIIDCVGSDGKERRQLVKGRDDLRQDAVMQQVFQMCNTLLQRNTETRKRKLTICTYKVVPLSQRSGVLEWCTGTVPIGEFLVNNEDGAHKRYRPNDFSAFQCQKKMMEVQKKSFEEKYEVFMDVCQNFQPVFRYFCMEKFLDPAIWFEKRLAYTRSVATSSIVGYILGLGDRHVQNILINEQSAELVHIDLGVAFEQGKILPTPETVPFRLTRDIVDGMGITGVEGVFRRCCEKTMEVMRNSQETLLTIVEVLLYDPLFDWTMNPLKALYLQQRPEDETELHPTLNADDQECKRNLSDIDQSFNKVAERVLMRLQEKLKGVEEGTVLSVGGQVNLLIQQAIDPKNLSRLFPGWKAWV

For the compound `O=c1cc(N2CCOCC2)cc(-c2cccc3c2Oc2ccc(NCc4ccnc(Cl)c4)cc2C3)[nH]1` [Example 2-2-52, 6-(7-(((2-Chloropyridin-4-yl)methyl)amino)-9H-xanthen-4-yl)-4-morpholino pyridin-2 (1H)-one], the IC50 in assay [1] is less than 100 nM. Moreover, in assay [2] (Homo sapiens, NCI-H460, 120 h), the SER2 (concentration at which the radiation sensitivity-enhancement ratio reaches 2) fell in the range of 500 to 2000 nM.
The matching figures for `O=c1cc(N2CCOCC2)cc(-c2cccc3c2Oc2ccc(NCc4cccs4)cc2C3)[nH]1` [Example 2-13-6, 4-Morpholino-6-(7-((thiophen-2-ylmethyl)amino)-9H-xanthen-4-yl) pyridin-2(1H)-one]: less than 100 nM and 500 to 2000 nM.
The matching figures for `O=c1cc(N2CCOCC2)cc(-c2cccc3c2Oc2ccc(NCc4ccc(Cl)s4)cc2C3)[nH]1` [Example 2-13-7, 6-(7-(((5-Chlorothiophen-2-yl)methyl)amino)-9H-xanthen-4-yl)-4-morpholino pyridin-2(1H)-one]: less than 100 nM and 500 to 2000 nM.
With `O=c1cc(N2CCOCC2)cc(-c2cccc3c2Oc2ccc(NCc4cncc(Br)c4)cc2S3)[nH]1` [Example 4-8-22, 6-(8-(((5-Bromopyridin-3-yl)methyl)amino)phenoxathiin-4-yl)-4-morpholino pyridin-2(1H)-one], in assay [1], the IC50 is less than 100 nM. Also, the SER2 (concentration at which the radiation sensitivity-enhancement ratio reaches 2) in assay [2] (Homo sapiens, NCI-H460, 120 h) was 100 to 500 nM.
The corresponding values for `COCCOCC(Nc1ccc2c(c1)Sc1cccc(-c3cc(N4CCOCC4)cc(=O)[nH]3)c1S2)c1ncc(C)cn1` (centres unmarked) [Example 1-12-98, 6-(7-((2-(2-Methoxyethoxy)-1-(5-methylpyrimidin-2-yl)ethyl)amino)thianthren-1-yl)-4-morpholino pyridin-2(1H)-one] are less than 100 nM and 100 to 500 nM.
With `O=c1cc(N2CCOCC2)cc(-c2cccc3c2Oc2ccc(NCc4ccc(F)nc4)cc2S3)[nH]1` [Example 4-8-24, 6-(8-(((6-Fluoropyridin-3-yl)methyl)amino)phenoxathiin-4-yl)-4-morpholino pyridin-2(1H)-one], in assay [1], the IC50 was less than 100 nM. In addition, the SER2 (concentration at which the radiation sensitivity-enhancement ratio reaches 2) in assay [2] (Homo sapiens, NCI-H460, 120 h) was 100 to 500 nM.
The matching figures for `COCC(Nc1ccc2c(c1)Sc1cccc(-c3cc(N4CCOCC4)cc(=O)[nH]3)c1S2)c1ncc(C)cn1` (centres unmarked) [Example 1-12-96, 6-(7-((2-Methoxy-1-(5-methylpyrimidin-2-yl)ethyl)amino)thianthren-1-yl)-4-morpholino pyridin-2(1H)-one]: less than 100 nM and 100 to 500 nM.
Take `Cc1ccnc(C(C)Nc2ccc3c(c2)Sc2cccc(-c4cc(N5CCOCC5)cc(=O)[nH]4)c2S3)n1` (centres unmarked) [Example 1-12-69, 6-(7-((1-(4-Methylpyrimidin-2-yl)ethyl)amino)thianthren-1-yl)-4-morpholino pyridin-2(1H)-one]: the IC50 in assay [1] was less than 100 nM. Moreover, the SER2 (concentration at which the radiation sensitivity-enhancement ratio reaches 2) in assay [2] (Homo sapiens, NCI-H460, 120 h) is less than 100 nM.
On to `Cc1cccc(C(Nc2ccc3c(c2)Sc2cccc(-c4cc(N5CCOCC5)cc(=O)[nH]4)c2S3)C2CCN(C)C2)n1` (single isomer, unassigned) [Example 1-22-7, 6-(7-(((6-Methylpyridin-2-yl)(1-methylpyrrolidin-3-yl)methyl)amino)thianthren-1-yl)-4-morpholino pyridin-2 (1H)-one], for which the IC50 in assay [1] is less than 100 nM. Moreover, the SER2 (concentration at which the radiation sensitivity-enhancement ratio reaches 2) in assay [2] is less than 100 nM.
As to `COc1cccnc1CNc1ccc2c(c1)Sc1cccc(-c3cc(N4CCOCC4)cc(=O)[nH]3)c1O2` [Example 4-4-22, 6-(8-(((3-Methoxypyridin-2-yl)methyl)amino)phenoxathiin-4-yl)-4-morpholino pyridin-2(1H)-one], the IC50 in assay [1] is less than 100 nM. Moreover, the SER2 (concentration at which the radiation sensitivity-enhancement ratio reaches 2) in assay [2] (Homo sapiens, NCI-H460, 120 h) lay within 500 to 2000 nM.
Regarding `CCN(C)CCC(Nc1ccc2c(c1)Sc1cccc(-c3cc(N4CCOCC4)cc(=O)[nH]3)c1S2)c1cnc(C)cn1` (centres unmarked) [Example 1-23-2, 6-(7-((3-(Ethyl(methyl)amino)-1-(5-methylpyrazin-2-yl)propyl)amino)thianthren-1-yl)-4-morpholinopyridin-2(1H)-one], in assay [1], the IC50 was less than 100 nM. For the same compound, the SER2 (concentration at which the radiation sensitivity-enhancement ratio reaches 2) in assay [2] (Homo sapiens, NCI-H460, 120 h) lay in the range of 100 to 500 nM.
On to `CN(C)c1cnc(CNc2ccc3c(c2)Cc2cccc(-c4cc(N5CCOCC5)cc(=O)[nH]4)c2O3)cn1` [Example 2-2-37], for which the IC50 in assay [1] was less than 100 nM. Further, the SER2 (concentration at which the radiation sensitivity-enhancement ratio reaches 2) in assay [2] (Homo sapiens, NCI-H460, 120 h) was 500 to 2000 nM.
The corresponding values for `O=c1cc(N2CCOCC2)cc(-c2cccc3c2Oc2ccc(NCc4cncc(C5CCCC5)c4)cc2S3)[nH]1` [Example 4-8-15, 6-(8-(((5-Cyclopentylpyridin-3-yl)methyl)amino)phenoxathiin-4-yl)-4-morpholino pyridin-2(1H)-one] are less than 100 nM and 500 to 2000 nM.
In the case of `COc1ccnc(C(C)Nc2ccc3c(c2)Cc2cccc(-c4cc(N5CCOCC5)cc(=O)[nH]4)c2O3)c1` (centres unmarked) [Example 2-14-20, 6-(7-((1-(4-Methoxypyridin-2-yl)ethyl)amino)-9H-xanthen-4-yl)-4-morpholino pyridin-2(1H)-one], the IC50 in assay [1] was less than 100 nM. Further, the SER2 (concentration at which the radiation sensitivity-enhancement ratio reaches 2) in assay [2] (Homo sapiens, NCI-H460, 120 h) was less than 100 nM.
As to `N#Cc1cccc(CNc2ccc3c(c2)Sc2cccc(-c4cc(N5CCOCC5)cc(=O)[nH]4)c2O3)n1` [Example 4-4-25, 6-(((6-(4-Morpholino-6-oxo-1,6-dihydropyridin-2-yl)phenoxathiin-2-yl)amino)methyl)picolinonitrile], in assay [1], the IC50 is less than 100 nM. Also, the SER2 (concentration at which the radiation sensitivity-enhancement ratio reaches 2) in assay [2] (Homo sapiens, NCI-H460, 120 h) is 500 to 2000 nM.
As to `COc1cncc(CN2CCC(Nc3ccc4c(c3)Cc3cccc(-c5cc(N6CCOCC6)cc(=O)[nH]5)c3O4)CC2)n1` [Example 2-28-23, 6-(7-((1-((6-Methoxypyrazin-2-yl)methyl)piperidin-4-yl)amino)-9H-xanthen-4-yl)-4-morpholino pyridin-2(1H)-one], in assay [1], the IC50 is less than 100 nM. In addition, the SER2 (concentration at which the radiation sensitivity-enhancement ratio reaches 2) in assay [2] (Homo sapiens, NCI-H460, 120 h) fell in the range of 500 to 2000 nM.
The corresponding values for `CNc1ccc(CNc2ccc3c(c2)Cc2cccc(-c4cc(N5CCOCC5)cc(=O)[nH]4)c2O3)cn1` [Example 2-2-7, 6-(7-(((6-(Methylamino)pyridin-3-yl)methyl)amino)-9H-xanthen-4-yl)-4-morpholino pyridin-2 (1H)-one] are 100 to 500 nM and 100 to 500 nM.
Turning to `CC(Nc1ccc2c(c1)Cc1cccc(-c3cc(N4CCOCC4)cc(=O)[nH]3)c1O2)c1nccc(CF)n1` (single isomer, unassigned) [Example 2-14-94-1, 6-(7-((1-(4-(fluoromethyl)pyrimidin-2-yl)ethyl)amino)-9H-xanthen-4-yl)-4-morpholinopyridin-2(1H)-one], the IC50 in assay [1] is less than 100 nM. For the same compound, in assay [2] (Homo sapiens, NCI-H460, 120 h), the SER2 (concentration at which the radiation sensitivity-enhancement ratio reaches 2) is less than 100 nM.
With `N#Cc1cccc(CNc2ccc3c(c2)Sc2cccc(-c4cc(N5CCOCC5)cc(=O)[nH]4)c2S3)n1` [Example 1-12-38, 6-(((6-(4-Morpholino-6-oxo-1,6-dihydropyridin-2-yl)thianthren-2-yl)amino)methyl)picolinonitrile], the IC50 in assay [1] is less than 100 nM. Also, in assay [2] (Homo sapiens, NCI-H460, 120 h), the SER2 (concentration at which the radiation sensitivity-enhancement ratio reaches 2) was less than 100 nM.
As for `Cc1ccnc(C(CO)Nc2ccc3c(c2)Sc2cccc(-c4cc(N5CCOCC5)cc(=O)[nH]4)c2S3)n1` (centres unmarked) [Example 1-12-90, 6-(7-((2-Hydroxy-1-(4-methylpyrimidin-2-yl)ethyl)amino)thianthren-1-yl)-4-morpholino pyridin-2(1H)-one], in assay [1], the IC50 was less than 100 nM. Moreover, the SER2 (concentration at which the radiation sensitivity-enhancement ratio reaches 2) in assay [2] (Homo sapiens, NCI-H460, 120 h) is 100 to 500 nM.
As to `CC1CN(CCNc2ccc3c(c2)Sc2cccc(-c4cc(N5CCOCC5)cc(=O)[nH]4)c2S3)CCO1` (centres unmarked) [Example 1-16-6, 6-(7-((2-(2-Methylmorpholino)ethyl)amino)thianthren-1-yl)-4-morpholinopyridin-2(1H)-one], the IC50 in assay [1] is less than 100 nM. In assay [2] (Homo sapiens), the SER2 (concentration at which the radiation sensitivity-enhancement ratio reaches 2) was 100 to 500 nM.
Regarding `Cc1cnc(C(C)Nc2ccc3c(c2)Sc2cccc(-c4cc(N5CCOCC5)cc(=O)[nH]4)c2S3)cn1` (single isomer, unassigned) [Example 1-12-137-1, 6-(7-((1-(5-methylpyrazin-2-yl)ethyl)amino)thianthren-1-yl)-4-morpholinopyridin-2(1H)-one], in assay [1], the IC50 is less than 100 nM. In assay [2] (Homo sapiens, NCI-H460, 120 h), the SER2 (concentration at which the radiation sensitivity-enhancement ratio reaches 2) was less than 100 nM.
Consider `O=c1cc(N2CCOCC2)cc(-c2cccc3c2Sc2ccc(NCCN4CCCCC4)cc2S3)[nH]1` [Example 1-10-10], for which the IC50 in assay [1] is less than 100 nM. Besides, the SER2 (concentration at which the radiation sensitivity-enhancement ratio reaches 2) in assay [2] (Homo sapiens, NCI-H460, 120 h) lay within 100 to 500 nM.
With `O=c1cc(N2CCOCC2)cc(-c2cccc3c2Oc2ccc(NCc4ccc(F)nc4)cc2C3)[nH]1` [Example 2-2-11, 6-(7-(((6-Fluoropyridin-3-yl)methyl)amino)-9H-xanthen-4-yl)-4-morpholino pyridin-2 (1H)-one], in assay [1], the IC50 is less than 100 nM. In assay [2] (Homo sapiens, NCI-H460, 120 h), the SER2 (concentration at which the radiation sensitivity-enhancement ratio reaches 2) fell in the range of 100 to 500 nM.
For `COc1ccc(CNc2ccc3c(c2)Cc2cccc(-c4cc(N5CCOCC5)cc(=O)[nH]4)c2O3)cn1` [Example 2-2-1, 6-(7-(((6-methoxypyridin-3-yl)methyl)amino)-9H-xanthen-4-yl)-4-morpholinopyridin-2(1H)-one], the IC50 in assay [1] was less than 100 nM. Further, the SER2 (concentration at which the radiation sensitivity-enhancement ratio reaches 2) in assay [2] (Homo sapiens, NCI-H460, 120 h) lay in the range of 100 to 500 nM.
